Test results taken from patent publication US10167346B2, “Compositions and methods for making alpha-(1,2)-branched alpha-(1,6) oligodextrans” (TATE & LYLE INGREDIENTS FRANCE SAS, priority 2009, dated 2019).

Tested on: Caenorhabditis elegans
Test: lipid content in the in vivo model Caenorhabditis elegans
Conditions: positive control, concentration not given
Method: Oligodextrans according to the present invention were evaluated for their effect on lipid content using the in vivo model Caenorhabditis elegans. The substrates evaluated were TLD-1000 (unbranched 1 kDa dextran) and TLD-1030 (1 kDa dextran+32% α-1,2). […] A negative control (DMSO) and positive control (Orlistat) were also included. Each substrate was assayed four times with a total of 120 worms per substrate and concentration.

Compound: CCCCCCCCCCC[C@@H](C[C@@H]1OC(=O)[C@H]1CCCCCC)OC(=O)[C@H](CC(C)C)NC=O [Orlistat]
- reduction in lipid content: > 40%
